#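 In this assay, cells in 96-well plates receive the compound at five concentrations for 48 hours. Endpoints are linearly interpolated between the surrounding concentrations. GI50 = concentration required for 50% inhibition of growth. TGI: total growth inhibition.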
# Columns and labels:
# Test in all cases: NCI tumour cell line growth inhibition, 48 h
# M14 melanoma = system: M14 melanoma
# EKVX NSCLC = system: EKVX NSCLC
# NCI-H226 lung = system: NCI-H226 lung
# SNB-75 CNS = system: SNB-75 CNS
# MCF7 breast = system: MCF7 breast
# HS 578T breast = system: HS 578T breast
# OVCAR-5 ovarian = system: OVCAR-5 ovarian
# 786-0 renal = system: 786-0 renal
# CCRF-CEM leukemia = system: CCRF-CEM leukemia
# MALME-3M melanoma = system: MALME-3M melanoma
# UACC-257 melanoma = system: UACC-257 melanoma
# A498 renal = system: A498 renal
# MDA-MB-435 = system: MDA-MB-435
# DU-145 prostate = system: DU-145 prostate
# SW-620 colon = system: SW-620 colon
# U251 CNS = system: U251 CNS
# SK-MEL-5 melanoma = system: SK-MEL-5 melanoma
# TK-10 renal = system: TK-10 renal
# SN12C renal = system: SN12C renal
# IGROV1 ovarian = system: IGROV1 ovarian
# KM12 colon = system: KM12 colon
# HCC-2998 colon = system: HCC-2998 colon
# HCT-15 colon = system: HCT-15 colon
# PC-3 prostate = system: PC-3 prostate
# K-562 leukemia = system: K-562 leukemia
# NCI-H522 lung = system: NCI-H522 lung
# BT-549 breast = system: BT-549 breast
# HL-60(TB) leukemia = system: HL-60(TB) leukemia
# SK-MEL-28 melanoma = system: SK-MEL-28 melanoma
# A549 NSCLC = system: A549 NSCLC
# SF-539 CNS = system: SF-539 CNS
# MDA-MB-231 breast = system: MDA-MB-231 breast
# SNB-19 CNS = system: SNB-19 CNS
# OVCAR-8 ovarian = system: OVCAR-8 ovarian
# T-47D breast = system: T-47D breast
# UACC-62 melanoma = system: UACC-62 melanoma
# HOP-62 NSCLC = system: HOP-62 NSCLC
# COLO 205 colon = system: COLO 205 colon
# SF-295 CNS = system: SF-295 CNS
# HOP-92 NSCLC = system: HOP-92 NSCLC
# SF-268 CNS = system: SF-268 CNS
# HT29 colon = system: HT29 colon
# SR leukemia = system: SR leukemia
# NCI-H23 lung = system: NCI-H23 lung
# SK-OV-3 ovarian = system: SK-OV-3 ovarian
# MOLT-4 leukemia = system: MOLT-4 leukemia
# ACHN renal = system: ACHN renal
# LOX IMVI melanoma = system: LOX IMVI melanoma
# CAKI-1 renal = system: CAKI-1 renal
# SK-MEL-2 melanoma = system: SK-MEL-2 melanoma
# RPMI-8226 leukemia = system: RPMI-8226 leukemia
structure (smiles),measurement,setting,value
CSc1nn2c(-c3ccc4ccccc4c3)ccnc2c1C#N,GI50,M14 melanoma,390 nM
same,TGI,M14 melanoma,27400 nM
same,GI50,EKVX NSCLC,3040 nM
same,TGI,EKVX NSCLC,> 100000 nM
same,GI50,NCI-H226 lung,2810 nM
same,TGI,NCI-H226 lung,> 100000 nM
same,GI50,SNB-75 CNS,197 nM
same,TGI,SNB-75 CNS,1510 nM
same,GI50,MCF7 breast,1300 nM
same,TGI,MCF7 breast,> 100000 nM
same,GI50,HS 578T breast,1050 nM
same,TGI,HS 578T breast,> 100000 nM
same,GI50,OVCAR-5 ovarian,5140 nM
same,TGI,OVCAR-5 ovarian,> 100000 nM
same,GI50,786-0 renal,2110 nM
same,TGI,786-0 renal,> 100000 nM
same,GI50,CCRF-CEM leukemia,7510 nM
same,TGI,CCRF-CEM leukemia,> 100000 nM
same,GI50,MALME-3M melanoma,663 nM
same,TGI,MALME-3M melanoma,44500 nM
same,GI50,UACC-257 melanoma,6930 nM
same,TGI,UACC-257 melanoma,> 100000 nM
same,GI50,A498 renal,176 nM
same,TGI,A498 renal,897 nM
same,GI50,MDA-MB-435,229 nM
same,TGI,MDA-MB-435,641 nM
same,GI50,DU-145 prostate,6990 nM
same,TGI,DU-145 prostate,> 100000 nM
same,GI50,SW-620 colon,428 nM
same,TGI,SW-620 colon,> 100000 nM
same,GI50,U251 CNS,989 nM
same,TGI,U251 CNS,> 100000 nM
same,GI50,SK-MEL-5 melanoma,693 nM
same,TGI,SK-MEL-5 melanoma,> 100000 nM
same,GI50,TK-10 renal,5090 nM
same,TGI,TK-10 renal,> 100000 nM
same,GI50,SN12C renal,857 nM
same,TGI,SN12C renal,> 100000 nM
same,GI50,IGROV1 ovarian,763 nM
same,TGI,IGROV1 ovarian,> 100000 nM
same,GI50,KM12 colon,490 nM
same,TGI,KM12 colon,> 100000 nM
same,GI50,HCC-2998 colon,6020 nM
same,TGI,HCC-2998 colon,> 100000 nM
same,GI50,HCT-15 colon,390 nM
same,TGI,HCT-15 colon,> 100000 nM
same,GI50,PC-3 prostate,2980 nM
same,TGI,PC-3 prostate,> 100000 nM
same,GI50,K-562 leukemia,306 nM
same,TGI,K-562 leukemia,> 100000 nM
same,GI50,NCI-H522 lung,442 nM
same,TGI,NCI-H522 lung,> 100000 nM
same,GI50,BT-549 breast,2290 nM
same,TGI,BT-549 breast,> 100000 nM
same,GI50,HL-60(TB) leukemia,668 nM
same,TGI,HL-60(TB) leukemia,> 100000 nM
same,GI50,SK-MEL-28 melanoma,1160 nM
same,TGI,SK-MEL-28 melanoma,> 100000 nM
same,GI50,A549 NSCLC,828 nM
same,TGI,A549 NSCLC,> 100000 nM
same,GI50,SF-539 CNS,1300 nM
same,TGI,SF-539 CNS,64800 nM
same,GI50,MDA-MB-231 breast,1110 nM
same,TGI,MDA-MB-231 breast,5880 nM
same,GI50,SNB-19 CNS,1220 nM
same,TGI,SNB-19 CNS,> 100000 nM
same,GI50,OVCAR-8 ovarian,944 nM
same,TGI,OVCAR-8 ovarian,> 100000 nM
same,GI50,T-47D breast,4050 nM
same,TGI,T-47D breast,> 100000 nM
same,GI50,UACC-62 melanoma,439 nM
same,TGI,UACC-62 melanoma,6510 nM
same,GI50,HOP-62 NSCLC,1090 nM
same,TGI,HOP-62 NSCLC,> 100000 nM
same,GI50,COLO 205 colon,727 nM
same,TGI,COLO 205 colon,> 100000 nM
same,GI50,SF-295 CNS,1780 nM
same,TGI,SF-295 CNS,> 100000 nM
same,GI50,HOP-92 NSCLC,1710 nM
same,TGI,HOP-92 NSCLC,6550 nM
same,GI50,SF-268 CNS,1290 nM
same,TGI,SF-268 CNS,> 100000 nM
same,GI50,HT29 colon,454 nM
same,TGI,HT29 colon,> 100000 nM
same,GI50,SR leukemia,343 nM
same,TGI,SR leukemia,> 100000 nM
same,GI50,NCI-H23 lung,2040 nM
same,TGI,NCI-H23 lung,> 100000 nM
same,GI50,SK-OV-3 ovarian,2200 nM
same,TGI,SK-OV-3 ovarian,> 100000 nM
same,GI50,MOLT-4 leukemia,668 nM
same,TGI,MOLT-4 leukemia,> 100000 nM
same,GI50,ACHN renal,1140 nM
same,TGI,ACHN renal,> 100000 nM
same,GI50,LOX IMVI melanoma,754 nM
same,TGI,LOX IMVI melanoma,> 100000 nM
same,GI50,CAKI-1 renal,550 nM
same,TGI,CAKI-1 renal,> 100000 nM
same,GI50,SK-MEL-2 melanoma,874 nM
same,TGI,SK-MEL-2 melanoma,> 100000 nM
same,GI50,RPMI-8226 leukemia,599 nM
same,TGI,RPMI-8226 leukemia,> 100000 nM

# Source: PubChem BioAssay (NCI)
